Assay results from paper PMC10673511, “Design, Synthesis and Bioactivity Evaluation of Heterocycle-Containing Mono- and Bisphosphonic Acid Compounds” (Molecules, 2023).
≈ marks a conversion by molar mass, not a printed value. Read-outs that look alike come from different tables or passages of the source.

Legend:
[1] = test system: Arabidopsis thaliana; experiment: Arabidopsis growth inhibition assay (24-well plates, green channel pixel value); conditions: Arabidopsis thaliana, 240 h; for EC50: read-out: EC50 against Arabidopsis growth; for pest or weed control at 100 µg/mL: read-out: InR (%) against Arabidopsis
[2] = test system: Brassica napus L.; experiment: Pre-emergence herbicidal inhibition assay, Petri dish test, BN; format: in vivo; conditions: for EC50: Brassica napus, 168 h; for Relative activity ratio (BN root) / Relative activity ratio (BN stalk): relative to FOS
Description: (§1) The pre-emergence activity of the compounds against monocot Echinochloa crus-galli (EC) and dicot Brassica napus L. (BN) was evaluated using the standard Petri dish test. The compounds were dissolved in DMF, emulsified with Tween-80 and diluted with water to form stock solutions, each of which was further diluted to a gradient of 100, 50, 25, 10 and 1 mg/L for test. The test solutions were added to Petri dishes lined with a filter paper, on which 10 seeds of EC and BN were placed. After cultured in an intelligent climate chamber with a humidity of 65% at 26 °C for 7 days, the corresponding EC50 values were calculated.

[3] = test system: Echinochloa crus-galli; experiment: Pre-emergence herbicidal inhibition assay, Petri dish test, EC; format: in vivo; conditions: for EC50: Echinochloa crus-galli, 168 h; for Relative activity ratio (EC root) / Relative activity ratio (EC stalk): relative to FOS
Description: as §1

[4] = molecular target: recombinant E. coli DXR (EcDXR) (Escherichia coli, UniProt P45568); experiment: biochemical; conditions: read-out: InR (%) on DXR enzyme
[5] = root, 7 days, read-out: EC50 BN Root
[6] = stalk, 7 days, read-out: EC50 BN Stalk
[7] = root, 7 days, read-out: EC50 EC Root
[8] = stalk, 7 days, read-out: EC50 EC Stalk

Chain of recombinant E. coli DXR (EcDXR) (P45568 whole entry): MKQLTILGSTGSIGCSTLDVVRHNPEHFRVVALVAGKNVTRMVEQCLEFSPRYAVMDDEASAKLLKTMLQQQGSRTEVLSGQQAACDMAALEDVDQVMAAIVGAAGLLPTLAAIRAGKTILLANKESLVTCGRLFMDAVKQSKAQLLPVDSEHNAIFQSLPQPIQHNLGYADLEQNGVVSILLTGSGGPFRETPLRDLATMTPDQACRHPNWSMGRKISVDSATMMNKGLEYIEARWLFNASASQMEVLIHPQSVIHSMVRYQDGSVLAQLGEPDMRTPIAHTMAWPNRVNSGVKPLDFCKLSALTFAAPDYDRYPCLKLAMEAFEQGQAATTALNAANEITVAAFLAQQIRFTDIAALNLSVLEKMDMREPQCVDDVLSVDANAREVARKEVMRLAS

| SMILES | EC50 [1] [µg/mL] | pest or weed control at 100 µg/mL [1] [%] | EC50 ([2]; read-out: EC50 BN Root) [µg/mL] | EC50 ([2]; read-out: EC50 BN Stalk) [µg/mL] | EC50 ([3]; read-out: EC50 EC Root) [µg/mL] | EC50 ([3]; read-out: EC50 EC Stalk) [µg/mL] | melting point [°C] | inhibition at 100 µM [4] [%] | EC50 [2, 5] [µg/mL] | EC50 [2, 6] [µg/mL] | EC50 [3, 7] [µg/mL] | EC50 [3, 8] [µg/mL] | Relative activity ratio (BN root) [2] [fold] | Relative activity ratio (BN stalk) [2] [fold] | Relative activity ratio (EC root) [3] [fold] | Relative activity ratio (EC stalk) [3] [fold] |
| --- | --- | --- | --- | --- | --- | --- | --- | --- | --- | --- | --- | --- | --- | --- | --- | --- |
| Cc1noc(C)c1CCP(=O)(O)O [Compound 6e] | > 100 | 12.3 | > 100 | 68.4 (≈ 333 µM) | > 100 | 54.1 (≈ 264 µM) | > 250 | 12.1 | – | – | – | – | – | – | – | – |
| Cc1noc(C)c1CC(P(=O)(O)O)P(=O)(O)O [Compound 13g] | > 100 | 39.7 | – | – | – | – | > 250 | 7.3 | 60.4 (≈ 212 µM) | 41.5 (≈ 146 µM) | 79.8 (≈ 280 µM) | 32.3 (≈ 113 µM) | – | – | – | – |
| CCc1n[nH]c(O)c1CCP(=O)(O)O [Compound 5b] | > 100 | 26.5 | > 100 | > 100 | 86.7 (≈ 394 µM) | 92.2 (≈ 419 µM) | 217 to 218 | 12.9 | – | – | – | – | – | – | – | – |
| CC(C)c1onc(O)c1CCP(=O)(O)O [Compound 6d] | 45.7 ± 4.8 (≈ 194 µM) | 100 | – | – | – | – | – | 17.3 | 67.5 (≈ 287 µM) | 38.2 (≈ 162 µM) | 40.1 (≈ 171 µM) | 25.7 (≈ 109 µM) | 0.5 | 0.9 | 1.0 | 1.5 |
| Cc1onc(C(F)(F)F)c1CC(P(=O)(O)O)P(=O)(O)O [Compound 13i] | 40.7 ± 2.9 (≈ 120 µM) | 90.1 | – | – | – | – | 240 to 241 | 30.3 | 40.5 (≈ 119 µM) | 33.5 (≈ 98.8 µM) | 32.1 (≈ 94.7 µM) | 34.6 (≈ 102 µM) | 0.9 | 1.0 | 1.3 | 1.1 |
| O=P(O)(O)C(Cc1c(C(F)(F)F)n[nH]c1O)P(=O)(O)O [Compound 12e] | > 100 | 31.5 | – | – | – | – | 225 to 226 | 22.8 | > 100 | 45.7 (≈ 134 µM) | 46.8 (≈ 138 µM) | > 100 | – | – | – | – |
| CCCc1n[nH]c(O)c1CC(P(=O)(O)O)P(=O)(O)O [Compound 12c] | > 100 | 49.7 | – | – | – | – | > 250 | 32.3 | 55.1 (≈ 175 µM) | 33.1 (≈ 105 µM) | 68.3 (≈ 217 µM) | 36.4 (≈ 116 µM) | – | – | – | – |
| CCc1onc(O)c1CC(P(=O)(O)O)P(=O)(O)O [Compound 13b] | 37.7 ± 2.8 (≈ 125 µM) | 100 | – | – | – | – | – | 27.4 | 38.8 (≈ 129 µM) | 20.2 (≈ 67.1 µM) | 29.9 (≈ 99.3 µM) | 35.3 (≈ 117 µM) | 0.9 | 1.6 | 1.3 | 1.1 |
| Cc1n[nH]c(C)c1CCP(=O)(O)O [Compound 5e] | > 100 | 15.8 | 63 (≈ 309 µM) | > 100 | > 100 | 59.6 (≈ 292 µM) | > 250 | 23 | – | – | – | – | – | – | – | – |
| CCCc1n[nH]c(O)c1CCP(=O)(O)O [Compound 5c] | > 100 | 43.6 | – | – | – | – | 228 to 229 | 6.1 | > 100 | 48.2 (≈ 206 µM) | 76.3 (≈ 326 µM) | 10.6 (≈ 45.3 µM) | – | – | – | – |
| Cc1n[nH]c(C)c1CC(P(=O)(O)O)P(=O)(O)O [Compound 12g] | > 100 | 40.4 | – | – | – | – | > 250 | 11.6 | > 100 | 32.9 (≈ 116 µM) | 38.8 (≈ 137 µM) | 31.4 (≈ 111 µM) | – | – | – | – |
| Cc1n[nH]c(C(F)(F)F)c1CC(P(=O)(O)O)P(=O)(O)O [Compound 12i] | 88.3 ± 4.3 (≈ 261 µM) | 55.8 | – | – | – | – | > 250 | 27.1 | 36.6 (≈ 108 µM) | 21.7 (≈ 64.2 µM) | 53.1 (≈ 157 µM) | 47.7 (≈ 141 µM) | 0.9 | 1.5 | 0.8 | 0.8 |
| CCc1noc(CC)c1CCP(=O)(O)O [Compound 6f] | > 100 | 13.4 | – | – | – | – | > 250 | 11.7 | > 100 | > 100 | > 100 | 41.7 (≈ 179 µM) | – | – | – | – |
| CC(C)c1n[nH]c(O)c1CCP(=O)(O)O [Compound 5d] | > 100 | 48.3 | – | – | – | – | 210 to 211 | 17.7 | > 100 | 96.9 (≈ 414 µM) | 32.1 (≈ 137 µM) | > 100 | – | – | – | – |
| Cc1n[nH]c(O)c1CCP(=O)(O)O [Compound 5a] | > 100 | 24 | > 100 | 32.8 (≈ 159 µM) | 54.1 (≈ 262 µM) | 68.5 (≈ 332 µM) | 220 to 221 | 11.9 | – | – | – | – | – | – | – | – |
| CCc1onc(O)c1CCP(=O)(O)O [Compound 6b] | > 100 | 46.5 | 70.1 (≈ 317 µM) | 65.8 (≈ 298 µM) | 24.7 (≈ 112 µM) | 36.1 (≈ 163 µM) | – | 19.5 | – | – | – | – | – | – | – | – |
| CC(C)c1n[nH]c(O)c1CC(P(=O)(O)O)P(=O)(O)O [Compound 12d] | > 100 | 44.8 | – | – | – | – | > 250 | 12.4 | 21.2 (≈ 67.5 µM) | 41.5 (≈ 132 µM) | > 100 | 39.1 (≈ 124 µM) | – | – | – | – |
| CCc1noc(CC)c1CC(P(=O)(O)O)P(=O)(O)O [Compound 13h] | > 100 | 43.2 | – | – | – | – | > 250 | 10.3 | 39.2 (≈ 125 µM) | 50.8 (≈ 162 µM) | 48 (≈ 153 µM) | 45.7 (≈ 146 µM) | – | – | – | – |
| CCCc1onc(O)c1CC(P(=O)(O)O)P(=O)(O)O [Compound 13c] | 48.4 ± 5.3 (≈ 154 µM) | 100 | – | – | – | – | – | 28.4 | 27.7 (≈ 87.9 µM) | 46.9 (≈ 149 µM) | 43.9 (≈ 139 µM) | 45.8 (≈ 145 µM) | 1.3 | 0.7 | 0.9 | 0.8 |
| CCc1n[nH]c(CC)c1CCP(=O)(O)O [Compound 5f] | > 100 | 37.7 | – | – | – | – | > 250 | 32.4 | > 100 | > 100 | 71.6 (≈ 308 µM) | 31.4 (≈ 135 µM) | – | – | – | – |
| Cc1n[nH]c(O)c1CC(P(=O)(O)O)P(=O)(O)O [Compound 12a] | > 100 | 47.2 | – | – | – | – | > 250 | 13.7 | 51.3 (≈ 179 µM) | 87.1 (≈ 304 µM) | > 100 | 47.7 (≈ 167 µM) | – | – | – | – |
| CCc1n[nH]c(O)c1CC(P(=O)(O)O)P(=O)(O)O [Compound 12b] | > 100 | 29.6 | – | – | – | – | > 250 | 21.9 | 61.6 (≈ 205 µM) | 24.5 (≈ 81.6 µM) | 77.5 (≈ 258 µM) | 55.3 (≈ 184 µM) | – | – | – | – |
| CC1(C)CON(CCCP(=O)(O)O)C1=O [Compound 19] | > 100 | 43.2 | – | – | – | – | > 250 | 22.5 | 79.3 (≈ 334 µM) | 39.2 (≈ 165 µM) | > 100 | 88 (≈ 371 µM) | 0.4 | 0.8 | 0.4 | 0.4 |
| CCCc1onc(O)c1CCP(=O)(O)O [Compound 6c] | > 100 | 42 | – | – | – | – | – | 7.5 | 99.7 (≈ 424 µM) | 33.7 (≈ 143 µM) | 65.4 (≈ 278 µM) | 41.1 (≈ 175 µM) | – | – | – | – |
| CCc1n[nH]c(CC)c1CC(P(=O)(O)O)P(=O)(O)O [Compound 12h] | > 100 | 41.2 | – | – | – | – | > 250 | 2.3 | 40.1 (≈ 128 µM) | 22.3 (≈ 71.4 µM) | 44.2 (≈ 142 µM) | 31.1 (≈ 99.6 µM) | – | – | – | – |
| O=P(O)(O)C(Cc1c(C(F)F)n[nH]c1O)P(=O)(O)O [Compound 12f] | > 100 | 47 | – | – | – | – | 228 to 229 | 6.1 | 15.6 (≈ 48.4 µM) | 22.3 (≈ 69.2 µM) | 36.5 (≈ 113 µM) | 12.6 (≈ 39.1 µM) | – | – | – | – |
